Measured values reported in patent US20030207863A1, “Preventives and remedies for central nervous system diseases” (priority 2000, published 2003).

Tested on: IMR32 cells
Experiment: Amyloid β protein in culture supernatant of IMR32 cells after addition of urotensin II, by enzyme immunoassay
Type: cell-based
Conditions: cultured 24 hours
Description: Test compound 1 was added to IMR32 cells at various concentrations (μM) 10 minutes before addition of 10 nM of urotensin II. Then, urotensin II was added in the presence or absence of test compound 1, the mixture was cultured for 24 hours, and the amount of amyloid β protein in the supernatant of the culture was determined by enzyme immunoassay (Biochemistry, Vol.34, No.32, pp. 10272-10278, (1995)). Test compound 2 as described hereinafter (the compound of Synthesis Example 5) was used and added at a concentration of 1 nM, and the amount of amyloid β protein was determined in the same manner as that of Experimental Example 1. Namely, IMR32 cells were used and test compound 2 was added at a concentration of 1 nM 10 minutes before addition of 10 nM of urotensin II. After addition of urotensin II, the mixture was cultured for 24 hours and the amount of amyloid β protein in the supernatant of the culture was determined by enzyme immunoassay.

Row | Structure (SMILES) | suppression of increase of amyloid β40 by urotensin II (test compound at 1 nM added 10 minutes before 10 nM urotensin II, FIG. 2) | suppression of increase in the selective secretion of amyloid β40 by urotensin II (test compound at various concentrations (μM) added 10 minutes before 10 nM urotensin II, FIG. 1)
1 | Cl.NS(=O)(=O)c1ccc(CCN(Cc2cccc(-c3cccc(C(=O)NCCN4CCCC4)c3)c2)C(=O)CCCc2ccccc2)cc1 [test compound 2, 3′-{({2-[4-(Aminosulfonyl)phenyl]ethyl}[4-phenylbutanoyl]amino)methyl}-N-[2-(1-pyrrolidinyl)ethyl][1,1′-biphenyl]-3-carboxamide Hydrochloride] | completely suppressed | –
2 | Cc1ccc2nc3c(c(N)c2c1)CCN3Cc1ccccc1 [test compound 1] | – | concentration-dependently suppressed
